Measured values reported in patent publication US4145444A, “Anti-inflammatory agent of benzoyl derivative” (priority 1977, dated 1979).
Where two headings read alike, the source gives them in different places.

Columns and labels:
hind paws of male rats = assay: Anti-inflammatory effect: acute carragheenin edema method; format: in vivo; details: Rattus norvegicus, read-out: Anti-inf.: edema inhibition rate
Protocol: The edema was induced by subcutaneous injection of 1% carragheenin suspension in saline to the hind paws of male rats weighting 150 to 180 g. Each sample was orally given at the dosage of 100 mg/kg just before the inoculation of carragheenin.

platelet = assay: Blood platelet aggregation inhibiting effect (collagen-induced); format: cell-based, rabbits; details: Oryctolagus cuniculus, Platelet; 10^-4 mole, collagen inducer, rabbit PRP; read-out: Blood platelet agg. inh.: percentage inhibition of platelet aggregation
Excerpt: Male rabbits (Japan original white strain 3.3 to 3.6 kg) were anesthetized with Thiopental sodium and blood was sampled from the carotid artery.

thrombus = assay: Inhibiting effect on thrombosis (by-pass between left juglar vein and right carotid artery, silk thread); format: in vivo, SD type male rates; details: Rattus norvegicus; 100 mg/kg oral, 5 hours before first blood circulation, rats; read-out: Thrombosis inh.: thrombosis inhibition rate
Protocol: The inhibiting effects of the samples of the invention on thrombosis were tested by the following test method.
A 0.5 ml of 50 μ/ml of the heparin physiological saline was added through the polyethylene tube before the first blood circulation. After the blood circulation for 15 minutes, the circulation was stopped in the middle of the tubing at artery side with a pinch cock.
Then, 0.2 ml of the heparin physiological saline was added to remove the blood coagulates on the tubing wall and another new polyethylene tubing filled with the heparin solution and containing a piece of new silk thread was attached between the venous and artery tubing ends.
The blood circulation was reestablished by opening the pinch cock. After 15 minutes, the wet weight of thrombus on the silk thread was similarly measured.
In the same manner, the third circulation was performed and wet weight of thrombus measured.
The amount of thrombus was given by the equation A. [formula] Each sample was suspended in an aqueous solution of sodium carboxymethyl cellulose and the oral dose of the suspension (100 mg/kg) was performed at 5 hours before the first blood circulation.
The amount of thrombus after the oral dose of the sample was calculated in the same manner as that of control circulations.
The thrombosis inhibition rate was given by the equation B. [formula]

male mice = assay: Analgesic effect: painful stretchings following intraperitoneal 0.7% acetic acid; details: Mus musculus, po, read-out: Analgesic: percentage diminition of times of painful stretching
Protocol: Each sample was orally administered in the dosage of 100 mg/kg before injection of acetic acid.

[1] = 100 mg/kg oral, carragheenin edema, male rats (Table 2)

| SMILES | inhibition in vivo at 100 mg/kg (hind paws of male rats; [1]) | inhibition at 100 µM (platelet) | inhibition in vivo at 100 mg/kg (thrombus) | inhibition in vivo at 100 mg/kg (male mice) | inhibition in vivo at 100 mg/kg (hind paws of male rats; po) |
| --- | --- | --- | --- | --- | --- |
| CCCCCCOc1ccc(C(=O)Cc2ccc(Cl)cc2)cc1 [compound 62] | 12.5% | 12.3% | 7.8% | 10.2% | – |
| CCCc1ccc(C(=O)c2ccc(Cl)cc2)cc1 [compound 63] | 11.8% | 15.6% | 6.2% | 8.2% | – |
| CCCCc1ccc(C(=O)c2ccc(Cl)cc2)cc1 [compound 64] | 21.4% | 28.5% | 15.9% | 6.6% | – |
| Cc1ccc(C(=O)c2ccccc2)cc1 [compound 65] | 17.3% | 21% | 19.2% | 10.9% | – |
| CCc1ccc(C(=O)c2ccccc2)cc1 [compound 66] | 34.4% | 20.7% | 20.5% | 15.7% | – |
| CC(C)Cc1ccc(C(=O)c2ccccc2)cc1 [compound 67] | 20% | 18.5% | 17.3% | 19.1% | – |
| CCCCCCCCCCc1ccc(C(=O)c2ccccc2)cc1 [compound 68] | 17.6% | 16.5% | 20.3% | 5.8% | – |
| CCCCCCCCCCCCc1ccc(C(=O)c2ccccc2)cc1 [compound 69] | 12% | 13.5% | 12.7% | 6.7% | – |
| CCCCCCCCCc1ccc(C(=O)c2ccccc2)cc1 [compound 70] | 23.2% | 17.2% | 10% | 7% | – |
| CCCCCCCCCCCc1ccc(C(=O)c2ccccc2)cc1 [compound 71] | 20% | 19.5% | 11.4% | 9.2% | – |
| Cc1ccc(C(=O)c2ccccc2)cc1C [compound 72] | 29.9% | 28.7% | 30.2% | 23.4% | – |
| COc1ccc(C(=O)c2ccccc2)c(OC)c1 [compound 74] | 30.2% | 18.5% | 28.9% | 24.2% | – |
| COc1ccc(OC)c(C(=O)c2ccccc2)c1 [compound 75] | 29.5% | 30.7% | 29.2% | 22% | – |
| COc1cc(OC)c(C(=O)c2ccccc2)c(OC)c1 [compound 76] | 15.7% | 16.2% | 18.4% | 13.9% | – |
| CCCCc1ccc(CCCC)c(C(=O)c2ccccc2)c1 [compound 77] | 13.2% | 25.1% | 17.5% | 10.8% | – |
| Cc1cc(C)c(C)c(C(=O)c2ccccc2)c1C [compound 78] | 12.5% | 19.9% | 20.2% | 5.4% | – |
| Cc1cc(C)c(C(=O)c2ccccc2)c(C)c1C [compound 79] | 33.2% | 26.8% | 31.5% | 20.8% | – |
| CCc1ccc(CC)c(C(=O)c2ccccc2)c1 [compound 80] | 31.9% | 30.3% | 28.5% | 16.2% | – |
| CCOc1ccc(C(=O)c2ccccc2)cc1 [compound 81] | 15.3% | 18.3% | 20.3% | 17.6% | – |
| C=Cc1ccc(C(=O)c2ccccc2)cc1 [compound 82] | 23.8% | 20.5% | 30.1% | 13.5% | – |
| Cc1ccc(C(=O)c2ccc(C)cc2)cc1 [compound 83] | 20% | 27.6% | 19.3% | 12.1% | – |

| SMILES | inhibition in vivo at 100 mg/kg (hind paws of male rats; [1]) | inhibition at 100 µM (platelet) | inhibition in vivo at 100 mg/kg (thrombus) | inhibition in vivo at 100 mg/kg (male mice) | inhibition in vivo at 100 mg/kg (hind paws of male rats; po) |
| --- | --- | --- | --- | --- | --- |
| CCCCCc1ccc(C(=O)c2ccc(C)cc2)cc1 [compound 84] | 28.4% | 8.6% | 16% | 15.3% | – |
| CCCCCCCc1ccc(C(=O)c2ccc(C)cc2)cc1 [compound 85] | – | 18.7% | 16.2% | 10.2% | 18.7% |
| Cc1ccc(C(=O)c2c(C)cc(C)cc2C)cc1 [compound 86] | 17.7% | 28.3% | 35.6% | 8.3% | – |
| CCCc1ccc(C(=O)c2cccc(C)c2)cc1 [compound 87] | 18.7% | 30.1% | 25.8% | 11.2% | – |
| CCCCc1ccc(C(=O)c2cccc(C)c2)cc1 [compound 88] | 21.6% | 24.5% | 29.3% | 5.6% | – |
| CCCCCc1ccc(C(=O)c2cccc(C)c2)cc1 [compound 89] | 27.6% | 22.6% | 13.2% | 4.3% | – |
| CCCc1ccc(C(=O)c2ccccc2C)cc1 [compound 90] | 19.7% | 10.8% | 15% | 13.7% | – |
| Cc1ccccc1C(=O)c1c(C)c(C)cc(C)c1C [compound 91] | 21.4% | 14.7% | 31% | 15.2% | – |
| CCCc1ccc(C(=O)c2ccc(OC)cc2)cc1 [compound 93] | 20.4% | 24.4% | 26.8% | 14.7% | – |
| CCCCOc1ccc(C(=O)c2c(C)cc(C)cc2C)cc1 [compound 94] | 26.6% | 27.9% | 37.4% | 15.8% | – |
| CCCCOc1ccc(C(=O)c2ccc(CCCC)cc2)cc1 [compound 95] | 17.1% | 30% | 32.3% | 14.5% | – |
| CCCc1ccc(C(=O)c2ccc(C)cc2C)cc1 [compound 96] | 26.1% | 28.5% | 36.7% | 18.9% | – |
| CCCc1ccc(C(=O)c2c(C)cc(C)cc2C)cc1 [compound 97] | 13% | 26.8% | 37.3% | 14.7% | – |
| CCCCc1ccc(C(=O)c2ccc(CCC)cc2)cc1 [compound 98] | 31.9% | 28.3% | 35.4% | 16.4% | – |
| CCCCCc1ccc(C(=O)c2ccc(CCC)cc2)cc1 [compound 99] | 34.1% | 29.5% | 30.3% | 15.5% | – |
| CCCCCCCc1ccc(C(=O)c2ccc(CCCC)cc2)cc1 [compound 100] | 14% | 22.4% | 27.6% | 10% | – |
| CCCCCCCCc1ccc(C(=O)c2ccc(CCCC)cc2)cc1 [compound 101] | 23.1% | 27.9% | 31.4% | 18.3% | – |
| CCCCCCCCCc1ccc(C(=O)c2ccc(CCCC)cc2)cc1 [compound 102] | 22.4% | 30.4% | 29.7% | 15.2% | – |
| CCCCCCc1ccc(C(=O)c2c(C)cc(C)cc2C)cc1 [compound 103] | 29.7% | 29.5% | 35.8% | 14.2% | – |
| CCCc1ccc(C(=O)c2ccc(O)cc2)cc1 [compound 104] | 27.4% | 25.3% | 30.5% | 13.2% | – |
| CCCCCc1ccc(C(=O)c2ccc(O)cc2)cc1 [compound 105] | 33.6% | 24.1% | 31.4% | 14.1% | – |
